Measured values reported in patent US20090075948A1, “COMPOSITIONS AND METHODS FOR REGULATING CELLULAR PROTECTION” (California Institute of Technology, priority 2007, published 2009).

Key:
Assay type in all cases: cell-based, Drosophila
HSF = HSF DNA binding activity, gel mobility shift assay (EMSA) with whole cell extracts and labeled HSE; conditions: for optimal concentration for induction of HSF DNA binding: treated 60 minutes, no heat shock; for stimulation of HSF DNA binding: without cellular stress
Experimental: FIG. 14. Induction of HSF DNA binding and hsp70 protein synthesis by ibuprofen and salicylic acid. The concentrations of ibuprofen and salicylic acid are shown as mM. Both DNA binding and Hsp70 protein synthesis follow the same optimal concentrations. The cells were treated for 60 minutes with the indicated drug and whole cell extracts prepared for analysis.
The effect of the KDs on DNA binding was first examined using the gel mobility shift assay. Briefly cells were treated with RNAi or transfected with the indicated DNA constructs and harvested four days later. Whole cell extracts were prepared and DNA binding carried out with a labeled heat shock element (HSE) double stranded oligonucleotide. Lanes 1 and 2 represent control cells, non-shocked and heat shocked, respectively. […] Lanes 3 and 4 contain extract derived from the Hsc3p KD cells.

Hsp70 [1] = assay: Induction of Hsp70 protein synthesis in cultured cells; conditions: for optimal concentration for induction of Hsp70 protein synthesis: treated 60 minutes, no heat shock; for stimulation of Hsp70 protein synthesis: without cellular stress
Experimental: FIG. 14. Induction of HSF DNA binding and hsp70 protein synthesis by ibuprofen and salicylic acid. The concentrations of ibuprofen and salicylic acid are shown as mM. Both DNA binding and Hsp70 protein synthesis follow the same optimal concentrations. The cells were treated for 60 minutes with the indicated drug and whole cell extracts prepared for analysis. […] The goal here is to activate HSF to produce adequate levels of Hsp70 that can provide neuroprotective functions to the human brain. To begin these studies, two common non-steroidal anti-inflammatory drugs (NSAIDs), ibuprofen and salicylic acid, were tested. These molecules have been previously shown to stimulate HSF DNA binding in mammalian and Drosophila cells. The findings presented here differ from those previously published. As reported here, both salicylic acid and ibuprofen can stimulate HSF DNA binding, Hsp70 transcription and Hsp70 protein synthesis. […] It is clear that both DNA binding and Hsp70 protein synthesis have identical optimums.

Hsp70 [2] = assay: Hsp70 transcription, primer-extension analysis of isolated RNA; conditions: for stimulation of Hsp70 transcription: without cellular stress
Experimental: FIG. 15. Time course for Hsp70 transcription induction by 3 mM salicylic acid. Cells were treated with 3 mM salicylic acid and RNA was isolated at the indicated times.
Control cells (lanes 1 and 2) show activation of Hsp70 transcription as a result of a ten-minute heat shock. […] Lanes 3 and 4 contain RNA from KD cells with RNAi against Hsc4p. […] When Hsc4p levels are reduced, HSF is able to bind DNA and activate transcription without heat shock.

[3] = Drosophila cultured cells, 60 minutes

Compound: CC(C)Cc1ccc(C(C)C(=O)O)cc1 (stereo not shown) [ibuprofen]
- optimal concentration for induction of HSF DNA binding (HSF; Drosophila cultured cells): 3 to 10 mM
- stimulation of HSF DNA binding (HSF): can stimulate
- optimal concentration for induction of Hsp70 protein synthesis (Hsp70 [1]; Drosophila cultured cells): 3 to 10 mM
- stimulation of Hsp70 protein synthesis (Hsp70 [1]): can stimulate
- stimulation of Hsp70 transcription (Hsp70 [2]): can stimulate

Compound: O=C(O)c1ccccc1O [salicylic acid]
- low concentration that still functions for HSF DNA binding (HSF; [3]): 1 mM
- optimal concentration for induction of HSF DNA binding (HSF; Drosophila cultured cells): quite broad
- stimulation of HSF DNA binding (HSF): can stimulate
- low concentration that still functions for Hsp70 protein synthesis (Hsp70 [1]; [3]): 1 mM
- optimal concentration for induction of Hsp70 protein synthesis (Hsp70 [1]; Drosophila cultured cells): quite broad
- stimulation of Hsp70 protein synthesis (Hsp70 [1]): can stimulate
- time course of Hsp70 transcription induction (Hsp70 [2]; 3 mM salicylic acid): induced rapidly
- stimulation of Hsp70 transcription (Hsp70 [2]): can stimulate
